In PMC9415947 (Pharmaceuticals, 2022):

Key:
Assay type in all cases: biochemical
PI3Kγ = target: T1, PI3Kγ (Homo sapiens, UniProt P48736); assay: In vitro PI3K inhibition assay (ADP-Glo kinase assay), PI3Kγ; conditions: for IC50: mean of two independent experiments; for Fold Selectivity γ/δ: ratio IC50 PI3Kγ / IC50 PI3Kδ
T1 construct: purchased Merck Millipore
Protocol: (§1) All compounds were tested in a biochemical assay that measured the inhibition of phosphatidylinositol […] production by PI3K isoforms using the ADP-Glo kinase assay (Promega). In addition, the effects of synthesized compounds on B cell proliferation were measured.
(§2) The potency and selectivity of compounds were assessed by measuring the ability of PI3K kinases to convert ATP to ADP during an enzymatic reaction in the presence of decreasing doses of tested compounds. The experiments were carried out using the ADP-Glo kinase assay kit (Promega), according to the manufacturer’s protocol. PI3Kα, PI3Kβ, PI3Kδ, and PI3Kγ have been purchased from Merck Millipore and phosphoinositol-4,5-bisphosphate (PIP2) lipid vesicles with phosphoserine from ThermoFisher Scientific were used as a substrate in the enzymatic reaction.
(§3) After the reaction, the ADP-Glo reagent and the kinase detection reagent were added sequentially with 40 min of incubation (25 °C, 600 rpm) after adding each reagent. Finally, the luminescence intensity was measured and the IC50 was calculated using GraphPad Prism 7 software. The presented results are the mean value of IC50 from at least two independent experiments.

PI3Kβ = target: T2, PI3Kβ (Homo sapiens, UniProt P42338); assay: In vitro PI3K inhibition assay (ADP-Glo kinase assay), PI3Kβ; conditions: for IC50: mean of two independent experiments; for Fold Selectivity β/δ: ratio IC50 PI3Kβ / IC50 PI3Kδ
T2 construct: purchased Merck Millipore
T2 sequence (P42338 whole entry, looked up): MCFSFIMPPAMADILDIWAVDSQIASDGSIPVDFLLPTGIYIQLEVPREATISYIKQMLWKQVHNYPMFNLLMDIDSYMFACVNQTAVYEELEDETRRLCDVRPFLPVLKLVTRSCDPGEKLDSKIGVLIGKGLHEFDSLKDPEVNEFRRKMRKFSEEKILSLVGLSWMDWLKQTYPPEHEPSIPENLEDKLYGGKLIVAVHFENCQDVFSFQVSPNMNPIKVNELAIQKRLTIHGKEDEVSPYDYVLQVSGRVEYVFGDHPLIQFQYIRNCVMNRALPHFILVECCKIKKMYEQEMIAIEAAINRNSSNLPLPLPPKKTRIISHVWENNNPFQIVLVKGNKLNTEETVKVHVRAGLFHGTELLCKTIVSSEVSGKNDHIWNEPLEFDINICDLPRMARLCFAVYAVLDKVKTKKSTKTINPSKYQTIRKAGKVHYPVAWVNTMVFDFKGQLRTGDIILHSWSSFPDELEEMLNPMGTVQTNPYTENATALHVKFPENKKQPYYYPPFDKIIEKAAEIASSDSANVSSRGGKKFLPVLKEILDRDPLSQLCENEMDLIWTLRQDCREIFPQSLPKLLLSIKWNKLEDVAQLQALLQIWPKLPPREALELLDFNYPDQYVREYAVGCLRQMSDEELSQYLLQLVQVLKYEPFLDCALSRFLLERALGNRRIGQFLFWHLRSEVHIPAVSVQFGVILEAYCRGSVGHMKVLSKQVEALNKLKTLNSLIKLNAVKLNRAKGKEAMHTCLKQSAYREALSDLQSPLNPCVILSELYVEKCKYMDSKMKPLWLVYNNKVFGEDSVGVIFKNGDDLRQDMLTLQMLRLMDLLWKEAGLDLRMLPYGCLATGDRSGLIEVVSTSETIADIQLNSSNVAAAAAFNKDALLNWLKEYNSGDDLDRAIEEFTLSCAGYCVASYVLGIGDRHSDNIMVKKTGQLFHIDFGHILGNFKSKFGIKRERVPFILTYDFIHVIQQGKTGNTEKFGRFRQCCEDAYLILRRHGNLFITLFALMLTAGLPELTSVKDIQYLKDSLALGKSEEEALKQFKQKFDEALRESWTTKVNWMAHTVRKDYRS
Protocol: as §1, §2, §3

PI3Kα = target: T3, PI3Kα (Homo sapiens, UniProt P42336); assay: In vitro PI3K inhibition assay (ADP-Glo kinase assay), PI3Kα; conditions: for Fold Selectivity α/δ: ratio IC50 PI3Kα / IC50 PI3Kδ
T3 construct: purchased Merck Millipore (methods text)
T3 sequence (P42336 whole entry): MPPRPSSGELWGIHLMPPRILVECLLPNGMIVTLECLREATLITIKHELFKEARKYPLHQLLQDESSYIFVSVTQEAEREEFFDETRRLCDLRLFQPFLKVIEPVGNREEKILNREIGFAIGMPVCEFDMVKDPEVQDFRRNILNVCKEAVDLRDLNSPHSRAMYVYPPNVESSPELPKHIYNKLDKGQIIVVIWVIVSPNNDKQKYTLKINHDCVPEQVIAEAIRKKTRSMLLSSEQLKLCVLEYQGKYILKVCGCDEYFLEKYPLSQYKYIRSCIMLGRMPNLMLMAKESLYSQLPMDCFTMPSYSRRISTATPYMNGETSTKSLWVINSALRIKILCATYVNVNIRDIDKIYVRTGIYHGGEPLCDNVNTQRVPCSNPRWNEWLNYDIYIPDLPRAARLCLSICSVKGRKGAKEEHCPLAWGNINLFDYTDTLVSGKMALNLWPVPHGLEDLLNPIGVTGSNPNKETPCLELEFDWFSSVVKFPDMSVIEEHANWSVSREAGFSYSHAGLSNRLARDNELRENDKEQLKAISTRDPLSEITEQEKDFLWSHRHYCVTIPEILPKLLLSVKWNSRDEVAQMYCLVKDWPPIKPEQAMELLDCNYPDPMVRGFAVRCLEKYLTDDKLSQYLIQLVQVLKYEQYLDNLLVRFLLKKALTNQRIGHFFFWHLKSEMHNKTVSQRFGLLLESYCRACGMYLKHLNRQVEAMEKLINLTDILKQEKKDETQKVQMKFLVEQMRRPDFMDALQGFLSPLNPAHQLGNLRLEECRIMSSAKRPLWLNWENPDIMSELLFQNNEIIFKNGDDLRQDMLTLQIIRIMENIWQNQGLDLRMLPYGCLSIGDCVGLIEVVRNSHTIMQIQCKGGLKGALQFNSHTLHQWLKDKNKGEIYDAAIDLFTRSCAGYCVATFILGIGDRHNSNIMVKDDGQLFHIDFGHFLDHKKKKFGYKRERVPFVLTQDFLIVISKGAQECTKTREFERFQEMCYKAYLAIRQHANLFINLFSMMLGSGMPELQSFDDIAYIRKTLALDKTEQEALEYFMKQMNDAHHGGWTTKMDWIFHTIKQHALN
T3 sequence (P27986 whole entry partner): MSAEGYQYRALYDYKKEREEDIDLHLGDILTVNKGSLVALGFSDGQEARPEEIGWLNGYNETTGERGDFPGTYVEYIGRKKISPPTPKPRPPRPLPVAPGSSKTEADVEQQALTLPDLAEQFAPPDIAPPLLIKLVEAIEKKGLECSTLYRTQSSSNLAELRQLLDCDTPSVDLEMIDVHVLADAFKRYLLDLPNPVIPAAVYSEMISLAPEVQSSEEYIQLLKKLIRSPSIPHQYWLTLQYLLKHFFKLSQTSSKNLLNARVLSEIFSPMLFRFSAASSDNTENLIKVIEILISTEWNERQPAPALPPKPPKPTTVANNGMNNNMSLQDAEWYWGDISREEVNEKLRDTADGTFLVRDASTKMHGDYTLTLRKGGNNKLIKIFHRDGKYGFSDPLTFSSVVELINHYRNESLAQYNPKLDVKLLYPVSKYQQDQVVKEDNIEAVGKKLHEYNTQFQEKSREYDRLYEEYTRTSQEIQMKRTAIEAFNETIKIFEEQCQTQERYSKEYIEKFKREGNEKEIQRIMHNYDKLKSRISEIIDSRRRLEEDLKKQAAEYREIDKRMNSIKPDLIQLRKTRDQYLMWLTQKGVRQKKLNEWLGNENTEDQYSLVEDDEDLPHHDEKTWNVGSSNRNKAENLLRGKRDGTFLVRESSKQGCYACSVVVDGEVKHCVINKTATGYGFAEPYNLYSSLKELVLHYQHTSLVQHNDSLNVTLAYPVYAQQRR
Protocol: as §1, §2, §3

PI3Kδ = target: T4, PI3Kδ (Homo sapiens, UniProt O00329); assay: In vitro PI3K inhibition assay (ADP-Glo kinase assay), PI3Kδ; conditions: mean of two independent experiments
T4 construct: purchased Merck Millipore
T4 sequence (O00329 whole entry, looked up): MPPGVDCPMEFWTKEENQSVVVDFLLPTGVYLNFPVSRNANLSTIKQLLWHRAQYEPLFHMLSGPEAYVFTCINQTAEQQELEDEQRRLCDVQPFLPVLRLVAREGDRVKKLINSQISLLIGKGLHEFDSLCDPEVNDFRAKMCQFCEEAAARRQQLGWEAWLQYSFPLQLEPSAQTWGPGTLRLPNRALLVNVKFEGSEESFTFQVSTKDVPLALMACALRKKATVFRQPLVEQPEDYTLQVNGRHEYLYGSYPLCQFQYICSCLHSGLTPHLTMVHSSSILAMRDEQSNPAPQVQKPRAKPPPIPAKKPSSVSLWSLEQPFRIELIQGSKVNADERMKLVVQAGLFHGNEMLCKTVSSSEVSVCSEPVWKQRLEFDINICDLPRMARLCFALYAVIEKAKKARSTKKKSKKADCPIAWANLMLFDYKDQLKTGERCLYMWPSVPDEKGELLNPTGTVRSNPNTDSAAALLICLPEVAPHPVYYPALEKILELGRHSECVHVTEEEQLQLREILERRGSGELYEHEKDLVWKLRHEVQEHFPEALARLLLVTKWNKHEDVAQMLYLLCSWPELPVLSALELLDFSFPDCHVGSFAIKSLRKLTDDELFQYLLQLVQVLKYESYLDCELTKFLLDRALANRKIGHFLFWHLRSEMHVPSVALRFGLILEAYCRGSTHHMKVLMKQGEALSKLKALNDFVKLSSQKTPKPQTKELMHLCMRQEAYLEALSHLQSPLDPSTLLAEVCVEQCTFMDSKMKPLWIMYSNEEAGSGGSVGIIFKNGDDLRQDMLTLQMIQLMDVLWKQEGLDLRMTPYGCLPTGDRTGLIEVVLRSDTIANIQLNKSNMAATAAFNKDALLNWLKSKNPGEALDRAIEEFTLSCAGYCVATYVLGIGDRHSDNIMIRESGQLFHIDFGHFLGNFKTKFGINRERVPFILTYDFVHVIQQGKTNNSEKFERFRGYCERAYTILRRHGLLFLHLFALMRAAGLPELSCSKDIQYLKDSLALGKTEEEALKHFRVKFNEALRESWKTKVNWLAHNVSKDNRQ
Protocol: as §1, §2, §3

T1 sequence (P48736 whole entry): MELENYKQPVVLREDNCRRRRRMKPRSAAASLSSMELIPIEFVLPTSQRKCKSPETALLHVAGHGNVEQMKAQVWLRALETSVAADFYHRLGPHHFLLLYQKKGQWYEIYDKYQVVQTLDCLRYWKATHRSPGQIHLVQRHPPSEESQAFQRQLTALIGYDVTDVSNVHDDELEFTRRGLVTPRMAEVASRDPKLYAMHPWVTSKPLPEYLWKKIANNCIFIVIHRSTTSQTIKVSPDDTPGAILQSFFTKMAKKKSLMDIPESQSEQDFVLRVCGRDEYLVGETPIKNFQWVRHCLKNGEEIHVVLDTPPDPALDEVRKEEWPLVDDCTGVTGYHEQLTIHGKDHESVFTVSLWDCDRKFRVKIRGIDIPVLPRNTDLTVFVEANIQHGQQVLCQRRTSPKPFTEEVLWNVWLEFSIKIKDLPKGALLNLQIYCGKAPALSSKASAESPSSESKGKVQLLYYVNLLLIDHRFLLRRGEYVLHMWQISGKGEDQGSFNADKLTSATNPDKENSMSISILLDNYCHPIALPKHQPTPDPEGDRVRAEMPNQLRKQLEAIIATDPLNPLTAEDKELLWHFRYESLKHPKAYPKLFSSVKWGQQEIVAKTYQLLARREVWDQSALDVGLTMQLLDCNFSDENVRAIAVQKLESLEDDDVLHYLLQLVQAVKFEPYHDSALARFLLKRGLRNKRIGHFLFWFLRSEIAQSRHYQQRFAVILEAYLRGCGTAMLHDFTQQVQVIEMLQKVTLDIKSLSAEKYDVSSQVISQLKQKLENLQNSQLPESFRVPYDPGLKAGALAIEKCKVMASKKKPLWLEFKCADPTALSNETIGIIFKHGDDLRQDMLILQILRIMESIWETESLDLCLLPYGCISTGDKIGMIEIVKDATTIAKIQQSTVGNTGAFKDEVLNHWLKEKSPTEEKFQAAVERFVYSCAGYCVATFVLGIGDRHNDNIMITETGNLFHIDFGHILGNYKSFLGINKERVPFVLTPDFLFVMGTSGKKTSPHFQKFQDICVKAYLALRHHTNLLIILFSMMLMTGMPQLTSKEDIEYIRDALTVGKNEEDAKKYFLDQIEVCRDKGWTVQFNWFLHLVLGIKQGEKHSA

IC50 (PI3Kβ) [µM] | Fold Selectivity β/δ (PI3Kβ) | IC50 (PI3Kα) [µM] | Fold Selectivity α/δ (PI3Kα) | SMILES | IC50 (PI3Kγ) [µM] | Fold Selectivity γ/δ (PI3Kγ) | IC50 (PI3Kδ) [µM]
266 | 690 | 28.7 | 74 | CCc1nc2ccccc2n1-c1cc(N2CCOCC2)n2nc(CN3CCN(C(C)(C)C)CC3)cc2n1 [Compound 7, 1-{2-[(4-tert-butylpiperazin-1-yl)methyl]-7-(morpholin-4-yl)pyrazolo[1,5-a]pyrimidin-5-yl}-2-ethyl-1H-benzimidazole] | 258 | 671 | 0.385
259 | 242 | 82.5 | 77 | CC(C)(C)N1CCN(Cc2cc3nc(-n4c(C5CC5)nc5ccccc54)cc(N4CCOCC4)n3n2)CC1 [Compound 8, 1-{2-[(4-tert-butylpiperazin-1-yl)methyl]-7-(morpholin-4-yl)pyrazolo[1,5-a]pyrimidin-5-yl}-2-cyclopropyl-1H-benzimidazole] | 271 | 253 | 1.07
– | – | 1.73 | 33 | CC(C)(O)C1CCN(Cc2cc3nc(-n4c(C(F)F)nc5ccccc54)cc(N4CCOCC4)n3n2)CC1 [Compound 11, 2-[1-({5-[2-(difluoromethyl)-1H-benzimidazol-1-yl]-7-(morpholin-4-yl)pyrazolo[1,5-a]pyrimidin-2-yl}methyl)piperidin-4-yl]propan-2-ol] | 6.35 | 122 | 0.052
195 | 222 | 30.5 | 35 | Cc1nc2ccccc2n1-c1cc(N2CCOCC2)n2nc(CN3CCC(C(C)(C)O)CC3)cc2n1 [Compound 12, 2-(1-{[5-(2-methyl-1H-1,3-benzimidazol-1-yl)-7-(morpholin-4-yl)pyrazolo[1,5-a]pyrimidin-2-yl]methyl}piperidin-4-yl)propan-2-ol] | 119 | 136 | 0.878
– | – | – | – | NC(=O)C1CCN(C(=O)c2cc3nc(-n4c(C(F)F)nc5ccccc54)cc(N4CCOCC4)n3n2)CC1 [Compound 48, 1-{5-[2-(difluoromethyl)-1H-1,3-benzimidazol-1-yl]-7-(morpholin-4-yl)pyrazolo[1,5-a]pyrimidine-2-carbonyl}piperidine-4-carboxamide] | 2.79 | 9 | 0.314
– | – | – | – | CC1(O)CCN(C(=O)c2cc3nc(-n4c(C(F)F)nc5ccccc54)cc(N4CCOCC4)n3n2)CC1 [Compound 49, 1-{5-[2-(difluoromethyl)-1H-1,3-benzimidazol-1-yl]-7-(morpholin-4-yl)pyrazolo[1,5-a]pyrimidine-2-carbonyl}-4-methylpiperidin-4-ol] | 1.82 | 8.5 | 0.213
– | – | – | – | O=C(c1cc2nc(-n3c(C(F)F)nc4ccccc43)cc(N3CCOCC3)n2n1)N1CCC(CO)CC1 [Compound 50, (1-{5-[2-(difluoromethyl)-1H-1,3-benzimidazol-1-yl]-7-(morpholin-4-yl)pyrazolo[1,5-a]pyrimidine-2-carbonyl}piperidin-4-yl)methanol] | 1.78 | 20 | 0.09
– | – | – | – | N#CC1CCN(C(=O)c2cc3nc(-n4c(C(F)F)nc5ccccc54)cc(N4CCOCC4)n3n2)CC1 [Compound 51, 1-{5-[2-(difluoromethyl)-1H-1,3-benzimidazol-1-yl]-7-(morpholin-4-yl)pyrazolo[1,5-a]pyrimidine-2-carbonyl}piperidine-4-carbonitrile] | 1.63 | 4.7 | 0.344
– | – | – | – | O=C(c1cc2nc(-n3c(C(F)F)nc4ccccc43)cc(N3CCOCC3)n2n1)N1CCC(N2CCOCC2)CC1 [Compound 52, 2-(difluoromethyl)-1-[7-(morpholin-4-yl)-2-[4-(morpholin-4-yl)piperidine-1-carbonyl]pyrazolo[1,5-a]pyrimidin-5-yl]-1H-1,3-benzimidazole] | 5.95 | 65 | 0.092
– | – | – | – | O=C(c1cc2nc(-n3c(C(F)F)nc4ccccc43)cc(N3CCOCC3)n2n1)N1CCC(O)CC1 [Compound 53, 1-{5-[2-(difluoromethyl)-1H-1,3-benzimidazol-1-yl]-7-(morpholin-4-yl)pyrazolo[1,5-a]pyrimidine-2-carbonyl}piperidin-4-ol] | 2.08 | 11 | 0.195
– | – | – | – | CC(=O)NC1CCN(C(=O)c2cc3nc(-n4c(C(F)F)nc5ccccc54)cc(N4CCOCC4)n3n2)CC1 [Compound 54, N-(1-{5-[2-(difluoromethyl)-1H-1,3-benzimidazol-1-yl]-7-(morpholin-4-yl)pyrazolo[1,5-a]pyrimidine-2-carbonyl}piperidin-4-yl)acetamide] | 1.69 | 12 | 0.141
– | – | – | – | CNC(=O)CN1CCN(C(=O)c2cc3nc(-n4c(C(F)F)nc5ccccc54)cc(N4CCOCC4)n3n2)CC1 [Compound 55, 2-(4-{5-[2-(difluoromethyl)-1H-1,3-benzimidazol-1-yl]-7-(morpholin-4-yl)pyrazolo[1,5-a]pyrimidine-2-carbonyl}piperazin-1-yl)-N-methylacetamide] | 2.17 | 26 | 0.082
– | – | – | – | CN1CCN(C(=O)c2cc3nc(-n4c(C(F)F)nc5ccccc54)cc(N4CCOCC4)n3n2)CC1 [Compound 56, 2-(difluoromethyl)-1-[2-(4-methylpiperazine-1-carbonyl)-7-(morpholin-4-yl)pyrazolo[1,5-a]pyrimidin-5-yl]-1H-1,3-benzimidazole] | 11.4 | – | 0.768
– | – | – | – | CC(C)N1CCN(C(=O)c2cc3nc(-n4c(C(F)F)nc5ccccc54)cc(N4CCOCC4)n3n2)CC1 [Compound 57, 2-(difluoromethyl)-1-[7-(morpholin-4-yl)-2-[4-(propan-2-yl)piperazine-1-carbonyl]pyrazolo[1,5-a]pyrimidin-5-yl]-1H-1,3-benzimidazole] | 25.5 | – | 0.271

SMILES | IC50 (PI3Kβ) [µM] | Fold Selectivity β/δ (PI3Kβ) | IC50 (PI3Kα) [µM] | Fold Selectivity α/δ (PI3Kα) | IC50 (PI3Kγ) [µM] | Fold Selectivity γ/δ (PI3Kγ) | IC50 (PI3Kδ) [µM]
Cc1nc2ccccc2n1-c1cc(N2CCOCC2)n2nc(CN3CCN(C(C)(C)C)CC3)cc2n1 [Compound 5, 1-{2-[(4-tert-butylpiperazin-1-yl)methyl]-7-(morpholin-4-yl)pyrazolo[1,5-a]pyrimidin-5-yl}-2-methyl-1H-benzimidazole] | 298 | 1264 | 10.6 | 45 | 175 | 742 | 0.236
